Test results as given in patent US5198533A, “LHRH antagonists” (The Administrators of the Tulane Educational Fund, priority 1988, dated 1993).
Where a SMILES comes first, the peptide text is derived from it. [ ]: non-standard residue; d: D form. dPhe(4-Cl) = N[C@H](Cc1ccc(Cl)cc1)C(=O)O; d2Nal = N[C@H](Cc1ccc2ccccc2c1)C(=O)O; dCit = NC(=O)NCCC[C@@H](N)C(=O)O; d3Pal = N[C@H](Cc1cccnc1)C(=O)O

Test system: edema of the face and extremities
Experiment: edematogenic test of Schmidt, et al.
Format: in vivo, rat
Conditions: 1.5 mg/kg s.c. once a day on two consecutive days
Protocol: In the edematogenic test of Schmidt, et al. (Contraception, 29, 283-289, 1984), however, a marked difference can be found between the control peptides and the peptides of the present invention. The control […] 1.50 mg/kg. No such reaction can be observed with the peptides of the present invention when given at a subcutaneous dose of 1.5 mg/kg.
In the tests as run, the rats were assigned to three groups of […] per group per compound tested. Comparison was made with a known prior art compound designated ORG 30276 namely (N-Ac-D-p-Cl-Phe^1,2,D-Trp^3,D-Arg^6,D-Ala^10)-LHRH. The groups were injected subcuntaneously once a day on two consecutive days with the LHRH antagonists at a dose level of 1.5 mg/kg. One control group was injected with diluent only. The rats were observed during five hours each day. Reactions of the rats were classified as follows: NR no apparent reaction, PR partial responders: edema of the nasal and paranasal area, FR full responders: facial edema with edematous extremities.

SMILES: CC(=O)N[C@H](Cc1ccc2ccccc2c1)C(=O)N[C@H](Cc1ccc(Cl)cc1)C(=O)N[C@H](Cc1cccnc1)C(=O)N[C@@H](CO)C(=O)N[C@@H](Cc1ccc(O)cc1)C(=O)N[C@H](CCCNC(N)=O)C(=O)N[C@@H](CC(C)C)C(=O)N[C@@H](CCCNC(=N)N)C(=O)N1CCC[C@H]1C(=O)N[C@H](C)C(N)=O [EX XXVI, Ac-D-Nal-D-Phe(4-Cl)-D-Pal(3)-Ser-Tyr-D-Cit-Leu-Arg-Pro-D-AlaNH2] (Ac-[d2Nal][dPhe(4-Cl)][d3Pal]SY[dCit]LRP[dA]-NH2)
- 2nd Day PR (number of rats, partial responders: edema of the nasal and paranasal area) (* = very light edema of the face): 0
- 1st Day FR (number of rats, full responders: facial edema with edematous extremities) (observed five hours each day): 0
- 1st Day NR (number of rats, no apparent reaction) (observed five hours each day): 8
- 1st Day PR (number of rats, partial responders: edema of the nasal and paranasal area) (observed five hours each day): 0
- 2nd Day FR (number of rats, full responders: facial edema with edematous extremities) (observed five hours each day): 0
- 2nd Day NR (number of rats, no apparent reaction) (observed five hours each day): 8
